SMILES strings stand for the structures. Activity calls are given as the source filed them. The calls are words filed in the database; no cut-off is given here.

In data set [1] the test system is LNCaP. Kind of data set: Cytotoxicity against human LNCAP cells assessed as reduction in cell viability incubated for 48 hrs by xCELLigence RTCA analysis. The class given is functional, cell-based.
The subject of data set [2] is LNCaP. The experiment in a line: Inhibition of Akt/mTOR pathway in human LNCAP cells assessed as reduction in PRAS40 phosphorylation at T246 residue at 50 uM incubated for 48 hrs by chemiluminescence reagent based autoradiography. The class given is cell-based.
In data set [3] the test system is LNCaP. Kind of data set: Inhibition of Akt/mTOR pathway in human LNCAP cells assessed as reduction in AKT2 phosphorylation at S473/T308 residues at 50 uM incubated for 48 hrs by chemiluminescence reagent based autoradiography. It is filed as cell-based.
The next data set concerns T-24. The experiment in a line: Cytotoxicity against human T24 cells assessed as reduction in cell viability incubated for 48 hrs by xCELLigence RTCA analysis. The class given is functional, cell-based. The conditions noted are these: T-24, 48 h.
Data set [4] relates to LNCaP. The experiment in a line: Inhibition of Akt/mTOR pathway in human LNCAP cells assessed as reduction in AKT3 phosphorylation at S473/T308 residues at 50 uM incubated for 48 hrs by chemiluminescence reagent based autoradiography. It is filed as cell-based.
For data set [5], the target named is Proto-oncogene tyrosine-protein kinase Src (Homo sapiens) (UniProt P12931). The experiment in a line: Inhibition of c-Src phosphorylation at Y419 residue in human LNCAP cells at 50 uM incubated for 48 hrs by chemiluminescence reagent based autoradiography. It is filed as cell-based.
Sequence of Proto-oncogene tyrosine-protein kinase Src (Homo sapiens) (P12931 2-536 limits assumed): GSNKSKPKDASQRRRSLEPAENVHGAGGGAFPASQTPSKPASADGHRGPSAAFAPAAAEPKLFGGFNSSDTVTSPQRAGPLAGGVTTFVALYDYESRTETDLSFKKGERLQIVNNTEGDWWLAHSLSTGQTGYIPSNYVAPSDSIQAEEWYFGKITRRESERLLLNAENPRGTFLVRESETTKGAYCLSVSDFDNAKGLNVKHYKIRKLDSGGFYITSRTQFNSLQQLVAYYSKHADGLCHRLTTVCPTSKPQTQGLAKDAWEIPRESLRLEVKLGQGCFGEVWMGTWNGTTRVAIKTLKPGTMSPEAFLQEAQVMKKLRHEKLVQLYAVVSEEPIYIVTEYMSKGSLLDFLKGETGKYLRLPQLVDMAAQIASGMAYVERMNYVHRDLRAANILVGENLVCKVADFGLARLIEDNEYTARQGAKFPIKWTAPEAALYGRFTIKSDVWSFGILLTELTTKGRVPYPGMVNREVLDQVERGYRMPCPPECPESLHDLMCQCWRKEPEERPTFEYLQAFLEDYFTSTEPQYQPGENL
Data set [6] deals with LNCaP. Kind of data set: Cytotoxicity against human LNCAP cells assessed as reduction in cell viability measured after 25 hrs by xCELLigence RTCA analysis. The class given is functional, cell-based.
Data set [7] concerns LNCaP. The experiment in a line: Antiproliferation activity against human LNCAP cells assessed as reduction in cell density incubated for 72 hrs by microscopic method. It is filed as functional, cell-based.
In a further data set the test system is DU-145. Kind of data set: Cytotoxicity against human DU145 cells assessed as reduction in cell viability incubated for 48 hrs by xCELLigence RTCA analysis. The class given is functional, cell-based. The conditions noted are these: DU-145, 48 h.
Data set [8] concerns the target Focal adhesion kinase 1 (Homo sapiens) (UniProt Q05397). Kind of data set: Inhibition of FAK phosphorylation at Y397 residue in human LNCAP cells at 50 uM incubated for 48 hrs by chemiluminescence reagent based autoradiography. The class given is cell-based.
For data set [9], the system named is LNCaP. Kind of data set: Effect on total HSP60 level in human LNCAP cells at 50 uM incubated for 48 hrs by chemiluminescence reagent based autoradiography. It is filed as ADME, cell-based.
Data set [10] concerns LNCaP. The experiment in a line: Inhibition of Akt/mTOR pathway in human LNCAP cells assessed as reduction in AKT1 phosphorylation at S473/T308 residues at 50 uM incubated for 48 hrs by chemiluminescence reagent based autoradiography. The class given is cell-based.
The subject of data set [11] is LNCaP. The experiment in a line: Inhibition of cell migration of human LNCAP cells at 8.8 uM measured every 10 mins for 24 hrs by xCELLigence RTCA analysis. It is filed as functional, cell-based.
Data set [12] deals with LNCaP. Kind of data set: Inhibition of Akt/mTOR pathway in human LNCAP cells assessed as reduction in mTOR phosphorylation at […] residue at 50 uM incubated for 48 hrs by chemiluminescence reagent based autoradiography. It is filed as cell-based.
Data set [13] deals with LNCaP. The experiment in a line: Inhibition of Akt/mTOR pathway in human LNCAP cells assessed as reduction in p70S6 kinase phosphorylation at T421/S424 residues at 50 uM incubated for 48 hrs by chemiluminescence reagent based autoradiography. It is filed as cell-based.
The subject of data set [14] is LNCaP. The experiment in a line: Inhibition of cell migration of human LNCAP cells at 8.9 uM measured every 10 mins for 24 hrs by xCELLigence RTCA analysis. The class given is functional, cell-based.
The subject of data set [15] is LNCaP. The experiment in a line: Cytotoxicity against human LNCAP cells assessed as reduction in cell viability incubated for 12 hrs by xCELLigence RTCA analysis. It is filed as functional, cell-based.

Sequence of Focal adhesion kinase 1 (Homo sapiens) (Q05397 2-1052 limits assumed): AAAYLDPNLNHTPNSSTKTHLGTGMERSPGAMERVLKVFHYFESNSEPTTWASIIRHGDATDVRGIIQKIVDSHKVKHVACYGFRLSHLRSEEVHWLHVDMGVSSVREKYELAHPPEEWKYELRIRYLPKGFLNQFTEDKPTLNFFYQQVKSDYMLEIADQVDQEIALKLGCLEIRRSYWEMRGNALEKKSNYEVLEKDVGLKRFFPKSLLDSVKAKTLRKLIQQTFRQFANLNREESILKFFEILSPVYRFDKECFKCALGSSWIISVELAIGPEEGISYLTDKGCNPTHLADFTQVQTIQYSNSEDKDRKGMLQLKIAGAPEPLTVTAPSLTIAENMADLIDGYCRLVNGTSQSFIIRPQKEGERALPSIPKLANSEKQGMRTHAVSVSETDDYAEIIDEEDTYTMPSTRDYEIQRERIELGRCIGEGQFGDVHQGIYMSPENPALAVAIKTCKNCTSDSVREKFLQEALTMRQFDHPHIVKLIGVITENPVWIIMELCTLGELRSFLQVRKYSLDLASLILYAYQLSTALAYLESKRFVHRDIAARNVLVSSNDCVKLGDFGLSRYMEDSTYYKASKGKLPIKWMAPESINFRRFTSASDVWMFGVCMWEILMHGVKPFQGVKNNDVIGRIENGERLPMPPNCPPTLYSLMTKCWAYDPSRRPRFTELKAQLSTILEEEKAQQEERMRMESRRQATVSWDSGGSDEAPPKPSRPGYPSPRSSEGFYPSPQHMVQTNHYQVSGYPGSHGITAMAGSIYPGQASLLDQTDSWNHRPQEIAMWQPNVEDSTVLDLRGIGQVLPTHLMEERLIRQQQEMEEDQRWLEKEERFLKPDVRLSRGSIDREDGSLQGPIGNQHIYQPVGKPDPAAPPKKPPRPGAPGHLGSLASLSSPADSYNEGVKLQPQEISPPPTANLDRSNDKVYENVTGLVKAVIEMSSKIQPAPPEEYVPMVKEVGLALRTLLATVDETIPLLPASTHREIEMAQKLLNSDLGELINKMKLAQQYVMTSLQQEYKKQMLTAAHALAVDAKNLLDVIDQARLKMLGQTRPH

Regarding `COc1c2c(c(C)c3c1C(=O)OC3)O[C@@]1(C)C[C@]3(O)OC[C@]4(C)O[C@@]5(OC)CC[C@](C)([C@H]1C2)[C@]43O5`, the IC50 in the data set with LNCaP [1] is 27 µM; in the data set with T-24 it was 73 µM; with DU-145, 73 µM. The inhibition entry (in the data set on LNCaP [2]; in the data set on LNCaP [3]; with LNCaP [4]; in [5]; with LNCaP [6]; in [8]) was “Active” in each case. The inhibition entry in the data set on LNCaP [10], in the data set with LNCaP [11], in the data set with LNCaP [12] and with LNCaP [13] was “Active” in each case. In addition, the outcome with LNCaP [7] was Active. Further, the Activity result in the data set with LNCaP [9] was “Toxic”.

As for `COc1c2c(c(C)c3c1C(=O)OC3)O[C@@]1(C)C[C@]3(O)OC[C@]4(C)O[C@@]5(OC)C[C@@H](OC(C)=O)[C@](C)([C@H]1C2)[C@]43O5`, the half-maximal inhibitory concentration (IC50) was found to be 20 µM in the data set with LNCaP [1], 64 µM with T-24 and 53 µM in the data set with DU-145. Moreover, the inhibition result in the data set on LNCaP [14] was “Active”. For the same compound, in the data set on LNCaP [7], the result was Active. In addition, in the data set with LNCaP [15], the inhibition result was “Dose-dependent effect”.

Usually IC50 stands for the concentration at which inhibition is half-maximal.

The values above are taken from ChEMBL document CHEMBL4304824, “Austalides V and W, new meroterpenoids from the fungus Aspergillus ustus and their antitumor activities” (Bioorg Med Chem Lett, 2019).
